Results taken from patent US12281079B2, “Quinoline derivatives, processes for their preparation and uses thereof for the treatment of cancer” (Lead Discovery Center GmbH, priority 2019, dated 2025).
pIC50: −log10 of the molar value.

Columns and labels:
[1] = target: mitochondrial RNA polymerase (POLRMT) (Mus musculus, UniProt Q8BKF1); assay: Homogeneous TR-FRET assay for mitochondrial transcription activity; format: biochemical; settings: homogeneous TR-FRET assay according to Example 4
In short: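 Read-out is TR-FRET (ex 340, em 665 nm) from two adjacent labelled DNA probes annealing to the 407 bp transcript after EDTA/700 mM NaCl stop. Reaction: murine POLRMT, TFAM, TFB2M and LSP plasmid template, compound 10 μM or serial dilution, 10 min rt preincubation, 500 μM each nucleotide, 2 h rt.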

[2] = test system: mitochondrial transcription (7S RNA) in HeLa cells; assay: Quantitative real time-PCR assay of inhibition of mitochondrial transcription (7S RNA) in HeLa cells; format: cell-based; settings: Homo sapiens, 4 h compound incubation, according to Example 5, read-out: cellular qPCR assay
Description: Quantitative real-time PCR (qRT-PCR), based on the TaqMan™ (Thermo Fisher Scientific, Waltham Mass.) technology, was carried out essentially as described in Held et al. (1996). HeLa cells were plated one day before compound treatment in RPMI medium supplemented with 10% Fetal Calf Serum and 2 mM L-glutamine. Cells were incubated with dilution series of compounds or vehicle (DMSO) for 4 h, prior to harvest and extraction of the RNA using the RNeasy Mini Kit (Qiagen, Hilden D), according to the manufacturer's instructions. RNA concentrations were measured spectroscopically, using a NanoDrop-2000 (Thermo Fisher Scientific, Waltham Mass.) and normalized prior to cDNA synthesis, using a ‘High-Capacity cDNA Reverse Transcription Kit’ (Thermo Fisher Scientific, Waltham Mass.). qRT-PCR was carried out using the ‘TaqMan Fast Advance Master Mix’ (Thermo Fisher Scientific, Waltham Mass.) on a 7500 Fast Real-Time PCR machine (Applied Biosystems, Foster City Calif.)
For these measurements, three genes were used to compare the effect of the scrutinized compounds in relation to their concentration. The POLRMT-gene was used to detect potential influences on nuclear transcription. Mitochondrial transcription in vivo was monitored by measurements 7S RNA. The TBP (TATA-box binding protein) gene was employed as the control (housekeeping gene) during qRT-PCR. The short-lived mitochondrial 7S RNA, which is not post-transcriptionally stabilized, allowed us to monitor rapid changes in mitochondrial transcription activity following compound addition. Biological triplicates were analyzed using the comparative CT Method (ΔΔCt) method (Bubner and Baldwin, 2004) and reported as Rq % values (Rq=Relative quantification=2−ΔΔCt).

Chain of mitochondrial RNA polymerase (POLRMT) (Q8BKF1 42-1207): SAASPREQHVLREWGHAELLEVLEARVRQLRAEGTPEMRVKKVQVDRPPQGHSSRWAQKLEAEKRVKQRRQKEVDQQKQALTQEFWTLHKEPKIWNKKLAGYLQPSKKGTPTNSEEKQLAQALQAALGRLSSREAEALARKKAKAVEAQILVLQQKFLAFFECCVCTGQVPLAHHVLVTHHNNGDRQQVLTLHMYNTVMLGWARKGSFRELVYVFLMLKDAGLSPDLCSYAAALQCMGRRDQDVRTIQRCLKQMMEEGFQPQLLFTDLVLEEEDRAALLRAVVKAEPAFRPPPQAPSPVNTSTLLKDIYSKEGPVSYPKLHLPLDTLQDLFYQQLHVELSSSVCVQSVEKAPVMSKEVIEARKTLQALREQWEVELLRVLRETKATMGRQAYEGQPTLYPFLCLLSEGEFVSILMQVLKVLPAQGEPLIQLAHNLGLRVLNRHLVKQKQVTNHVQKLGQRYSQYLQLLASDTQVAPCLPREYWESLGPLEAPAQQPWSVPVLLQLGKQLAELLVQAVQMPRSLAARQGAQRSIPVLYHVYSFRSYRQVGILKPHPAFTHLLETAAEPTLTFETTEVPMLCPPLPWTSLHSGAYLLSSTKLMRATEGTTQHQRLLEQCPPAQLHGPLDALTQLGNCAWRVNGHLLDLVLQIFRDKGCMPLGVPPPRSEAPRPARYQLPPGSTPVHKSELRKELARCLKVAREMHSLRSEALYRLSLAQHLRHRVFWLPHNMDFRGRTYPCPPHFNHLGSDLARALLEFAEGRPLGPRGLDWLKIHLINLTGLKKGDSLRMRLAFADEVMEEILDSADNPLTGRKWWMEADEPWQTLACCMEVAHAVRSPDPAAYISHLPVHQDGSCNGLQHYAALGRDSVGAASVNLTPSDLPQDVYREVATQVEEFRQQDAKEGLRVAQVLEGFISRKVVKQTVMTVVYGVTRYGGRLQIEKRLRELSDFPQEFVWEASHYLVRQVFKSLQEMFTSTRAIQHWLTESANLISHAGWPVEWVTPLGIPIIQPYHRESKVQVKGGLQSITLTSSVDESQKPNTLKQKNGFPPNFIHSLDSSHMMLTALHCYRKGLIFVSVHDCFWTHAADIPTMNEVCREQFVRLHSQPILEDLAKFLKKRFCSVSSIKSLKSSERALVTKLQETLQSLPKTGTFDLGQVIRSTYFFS

Compound | pIC50 [1] | pIC50 [2]
Cc1cccc(C)c1-c1ccnc2cc(O[C@H](C)C(=O)N3CCC[C@H](CC(=O)O)C3)ccc12 [Compound 3, 2-[(3R)-1-[(2R)-2-[[4-(2,6-dimethylphenyl)-7-quinolyl]oxy]propanoyl]-3-piperidyl]acetic acid] | > 7.70 | > 8.00
CCOC(=O)[C@H]1CCCN(C(=O)[C@@H](C)Oc2ccc3c(-c4c(C)cccc4C)ccnc3c2)C1 [Compound 4, ethyl (3S)-1-[(2R)-2[[4-(2,6-dimethylphenyl)-7-quinolyl]oxy]propanoyl]piperidine-3-carboxylate] | > 7.70 | > 8.00
Cc1cccc(C)c1-c1ccnc2cc(O[C@H](C)C(=O)N3CCC[C@@H](CC(=O)O)C3)ccc12 [Compound 5, 2-[(3S)-1-[(2R)-2-[[4-(2,6-dimethylphenyl)-7-quinolyl]oxy]propanoyl]-3-piperidyl]acetic acid] | > 7.70 | > 8.00
C[C@@H](Oc1ccc2c(-c3ccc(F)cc3Cl)ccnc2c1)C(=O)N1CCC[C@H](C(=O)O)C1 [Compound 10, (3S)-1-[(2R)-2-[[4-(2-chloro-4-fluoro-phenyl)-7-quinolyl]oxy]propanoyl]piperidine-3-carboxylic acid] | > 7.70 | 7.30 to 8.00
C[C@@H](Oc1ccc2c(-c3ccc(F)cc3Cl)ccnc2c1)C(=O)N1CCC[C@H](c2nn[nH]n2)C1 [Compound 11, (2R)-2-[[4-(2-chloro-4-fluoro-phenyl)-7-quinolyl]oxy]-1-[(3S)-3-(2H-tetrazol-5-yl)-1-piperidyl]propan-1-one] | > 7.70 | 6.30 to 7.30
Cc1ccccc1-c1ccnc2cc(O[C@H](C)C(=O)N3CCC[C@H](CC(=O)O)C3)ccc12 [Compound 13, 2-[(3R)-1-[(2R)-2-[[4-(o-tolyl)-7-quinolyl]oxy]propanoyl]-3-piperidyl]acetic acid] | 7.00 to 7.70 | 7.30 to 8.00
CCOC(=O)[C@H]1CCCN(C(=O)[C@@H](C)Oc2ccc3c(-c4ccccc4C)ccnc3c2)C1 [Compound 14, ethyl (3S)-1-[(2R)-2-[[4-(o-tolyl)-7-quinolyl]oxy]propanoyl]piperidine-3-carboxylate] | 7.00 to 7.70 | 6.30 to 7.30
C[C@@H](Oc1ccc2c(-c3ccc(F)cc3Cl)ccnc2c1)C(=O)N1CCC[C@@H](C(=O)O)C1 [Compound 17, (3R)-1-[(2R)-2-[[4-(2-chloro-4-fluoro-phenyl)-7-quinolyl]oxy]propanoyl]piperidine-3-carboxylic acid] | 7.00 to 7.70 | 6.30 to 7.30
C[C@@H](Oc1ccc2c(-c3ccc(F)cc3Cl)ccnc2c1)C(=O)N1CCC[C@H](CC(=O)O)C1 [Compound 18, 2-((R)-1-((R)-2-((4-(2-chloro-4-fluorophenyl)quinolin-7-yl)oxy)propanoyl)piperidin-3-yl)acetic acid] | 7.00 to 7.70 | 6.30 to 7.30
C[C@@H](Oc1ccc2c(-c3ccc(F)cc3Cl)ccnc2c1)C(=O)N1CC[C@H](C(=O)O)C1 [Compound 19, (3S)-1-[(2R)-2[[4-(2-chloro-4-fluoro-phenyl)-7-quinolyl]oxy]propanoyl]pyrrolidine-3-carboxylic acid] | 7.00 to 7.70 | 6.30 to 7.30
C[C@@H](Oc1ccc2c(-c3ccc(F)cc3Cl)ccnc2c1)C(=O)N1CCCCC1 [Compound 20, (2R)-2[[4-(2-chloro-4-fluoro-phenyl)-7-quinolyl]oxy]-1-(1-piperidyl)propan-1-one] | 7.00 to 7.70 | 7.30 to 8.00
Cc1ccccc1-c1cc(Cl)nc2cc(O[C@H](C)C(=O)N3CCC[C@H](C(=O)O)C3)ccc12 [Compound 25, (3S)-1-[(2R)-2-[[2-chloro-4-(o-tolyl)-7-quinolyl]oxy]propanoyl]piperidine-3-carboxylic acid] | 7.00 to 7.70 | 7.30 to 8.00
C[C@@H](Oc1ccc2c(-c3ccc(F)cc3Cl)ccnc2c1)C(=O)Nc1cccc(C(=O)O)c1 [Compound 26, 3-[[(2R)-2-[[4-(2-chloro-4-fluoro-phenyl)-7-quinolyl]oxy]propanoyl]amino]benzoic acid] | 7.00 to 7.70 | 6.30 to 7.30
CCC(=O)N1CCN(C(=O)[C@@H](C)Oc2ccc3c(-c4ccc(F)cc4Cl)ccnc3c2)CC1 [Compound 28, (R)-2-((4-(2-chloro-4-fluorophenyl)quinolin-7-yl)oxy)-1-(4-propionylpiperazin-1-yl)propan-1-one] | 6.00 to 7.00 | 7.30 to 8.00

Continued, values first:

pIC50 [1] | pIC50 [2] | Compound
> 7.70 | > 8.00 | Cc1cccc(C)c1-c1ccnc2cc(O[C@H](C)C(=O)N3CCC[C@H](C(=O)O)C3)ccc12 [Compound 2, (3S)-1-[(2R)-2-[[4-(2,6-dimethylphenyl)-7-quinolyl]oxy]propanoyl]piperidine-3-carboxylic acid]
> 7.70 | > 8.00 | C[C@@H](Oc1ccc2c(-c3ccccc3Cl)ccnc2c1)C(=O)N1CCC[C@@H](C(=O)O)C1 [Compound 7, (3R)-1-[(2R)-2-[[4-(2-chlorophenyl)-7-quinolyl]oxy]propanoyl]piperidine-3-carboxylic acid]
> 7.70 | 6.30 to 7.30 | CCOC(=O)C[C@H]1CCCN(C(=O)[C@@H](C)Oc2ccc3c(-c4ccccc4C)ccnc3c2)C1 [Compound 8, ethyl 2-[(3R)-1-[(2R)-2-[[4-(o-tolyl)-7-quinolyl]oxy]propanoyl]-3-piperidyl]acetate]
> 7.70 | > 8.00 | C[C@@H](Oc1ccc2c(-c3ccccc3Cl)ccnc2c1)C(=O)N1CCC[C@H](C(=O)O)C1 [Compound 9, (3S)-1-[(2R)-2-[[4-(2-chlorophenyl)-7-quinolyl]oxy]propanoyl]piperidine-3-carboxylic acid]
> 7.70 | > 8.00 | C[C@@H](Oc1ccc2c(-c3ccccc3Cl)cc(F)nc2c1)C(=O)N1CCC[C@H](C(=O)O)C1 [Compound 12, (3S)-1-[(2R)-2-[[4-(2-chlorophenyl)-2-fluoro-7-quinolyl]oxy]propanoyl]piperidine-3-carboxylic acid]
7.00 to 7.70 | 6.30 to 7.30 | CCOC(=O)C[C@H]1CCCN(C(=O)[C@@H](C)Oc2ccc3c(-c4ccc(F)cc4Cl)ccnc3c2)C1 [Compound 15, ethyl 2-((R)-1-((R)-2-((4-(2-chloro-4-fluorophenyl)quinolin-7-yl)oxy)propanoyl)piperidin-3-yl)acetate]
7.00 to 7.70 | 6.30 to 7.30 | C[C@@H](Oc1ccc2c(-c3ccccc3Cl)ccnc2c1)C(=O)N1CCC[C@H](CC(=O)O)C1 [Compound 16, 2-[(3R)-1-[(2R)-2-[[4-(2-chlorophenyl)-7-quinolyl]oxy]propanoyl]-3-piperidyl]acetic acid]
7.00 to 7.70 | 5.30 to 6.30 | Cc1ccccc1-c1cc(Cl)nc2cc(O[C@H](C)C(=O)N3CCC[C@H](CC(=O)O)C3)ccc12 [Compound 21, 2-[(3R)-1-[(2R)-2-[[2-chloro-4-(o-tolyl)-7-quinolyl]oxy]propanoyl]-3-piperidyl]acetic acid]
7.00 to 7.70 | 6.30 to 7.30 | C[C@@H](Oc1ccc2c(-c3ccc(F)cc3Cl)ccnc2c1)C(=O)N1CCC[C@@H](CC(=O)O)C1 [Compound 22, 2-[(3S)-1-[(2R)-2-[[4-(2-chloro-4-fluoro-phenyl)-7-quinolyl]oxy]propanoyl]-3-piperidyl]acetic acid]
7.00 to 7.70 | 6.30 to 7.30 | C[C@@H](Oc1ccc2c(-c3ccc(F)cc3Cl)ccnc2c1)C(=O)N1CCC(C(=O)O)CC1 [Compound 24, 1-[(2R)-2-[[4-(2-chloro-4-fluoro-phenyl)-7-quinolyl]oxy]propanoyl]piperidine-4-carboxylic acid]
7.00 to 7.70 | 5.30 to 6.30 | CCOC(=O)[C@H]1CCCN(C(=O)[C@@H](C)Oc2ccc3c(-c4ccc(F)cc4Cl)ccnc3c2)C1 [Compound 27, ethyl (3S)-1-[(2R)-2-[[4-(2-chloro-4-fluoro-phenyl)-7-quinolyl]oxy]propanoyl]piperidine-3-carboxylate]
6.00 to 7.00 | > 8.00 | C[C@@H](Oc1ccc2c(-c3ccccc3Cl)ccnc2c1)C(=O)OC(C)(C)C [Compound 29, tert-butyl (2R)-2-[[4-(2-chlorophenyl)-7-quinolyl]oxy]propanoate]
6.00 to 7.00 | 7.30 to 8.00 | C[C@@H](Oc1ccc2c(-c3ccc(F)cc3Cl)ccnc2c1)C(=O)N1CCC[C@H](C#N)C1 [Compound 30, (3S)-1-[(2R)-2-[[4-(2-chloro-4-fluoro-phenyl)-7-quinolyl]oxy]propanoyl]piperidine-3-carbonitrile]
6.00 to 7.00 | > 8.00 | Cc1cc(-c2ccccc2C)c2ccc(O[C@H](C)C(=O)N3CCC[C@H](C(=O)O)C3)cc2n1 [Compound 31, (3S)-1-[(2R)-2-[[2-methyl-4-(o-tolyl)-7-quinolyl]oxy]propanoyl]piperidine-3-carboxylic acid]
